Our source for the IC50 values is patent publication US20240390340A1 (INCYTE CORPORATION, priority 2023, published 2024).

The structures appear in SMILES notation.

Test [1] addresses KRAS G12D (Homo sapiens, UniProt P01116, G12D). Description: GDP-GTP exchange assay (bodipy-GDP/GppNHp, SOS1), KRAS G12D. Format: biochemical. The note with it: bodipy-loaded KRAS G12D 2.5 nM, 4 h pre-incubation; value for the most potent isomer quoted for certain compounds; read-out: G12D (KRAS G12D exchange assay IC50). On the procedure: (§1) The inhibitor potency of the exemplified compounds was determined in a fluorescence based guanine nucleotide exchange assay, which measures the exchange of bodipy-GDP (fluorescently labeled GOP) for GppNHp (Non-hydrolyzable GTP analog) to generate the active state of KRAS in the presence of SOS1 (guanine nucleotide exchange factor). Inhibitors were serially diluted in DMSO and a volume of 0.1 μL was transferred to the wells of a black low volume 384-well plate. 5 μL/well volume of bodipy-loaded KRAS G12D diluted to 2.5 nM in assay buffer (25 mM Hepes pH 7.5, 50 mM NaCl, 10 mM MgCl2 and 0.01% Brij-35) was added to the plate and pre-incubated with inhibitor for 4 h at r.t. Appropriate controls (enzyme with no inhibitor or with a G12D inhibitor) were included on the plate. The exchange was initiated by the addition of a 5 μL/well volume containing 1 mM GppNHp and 300 nM SOS1 in assay buffer. The 10 μL/well reaction concentration of the bodipy-loaded KRAS G12D, GppNHp, and SOS1 were 2.5 nM, 500 μM, and 150 nM, respectively. The reaction plates were incubated at r.t. for 2 h, a time estimated for complete GDP-GTP exchange in the absence of inhibitor. For the KRAS G12V mutant, similar guanine nucleotide exchange assays were used with 2.5 nM as final concentration for the bodipy loaded KRAS proteins and 3 h incubation after adding GppNHp-SOS1 mixture. A cyclic peptide described to selectively bind G12D mutant (Sakamoto et al., BBRC 484.3 (2017), 605-611) or internal compounds with confirmed binding were used as positive controls in the assay plates. Fluorescence intensities were measured on a PheraStar plate reader instrument (BMG Labtech) with excitation at 485 nm and emission at 520 nm.
(§2) Either GraphPad prism or Genedata Screener SmartFit was used to analyze the data. The IC50 values were derived by fitting the data to a four parameter logistic equation producing a sigmoidal dose-response curve with a variable Hill coefficient.
(§3) The symbol “†” indicates IC50≤100 nM, “††” indicates IC50>100 nM but ≤1 μM; and “†††” indicates IC50 is >1 μM but ≤5 μM, “††††” indicates IC50 is >5 μM but ≤10 μM. “NA” indicates IC50 not available.

The target in test [2] is KRAS G12V (Homo sapiens, UniProt P01116, G12V). Description: GDP-GTP exchange assay (bodipy-GDP/GppNHp, SOS1), KRAS G12V. As to conditions: KRAS G12V mutant; value for the most potent isomer quoted for certain compounds; read-out: G12V (KRAS G12V exchange assay IC50). Format: biochemical. On the procedure:
as §1, §2, §3

KRAS G12V, sequence (P01116 1-188 isoform P01116-2 G12V): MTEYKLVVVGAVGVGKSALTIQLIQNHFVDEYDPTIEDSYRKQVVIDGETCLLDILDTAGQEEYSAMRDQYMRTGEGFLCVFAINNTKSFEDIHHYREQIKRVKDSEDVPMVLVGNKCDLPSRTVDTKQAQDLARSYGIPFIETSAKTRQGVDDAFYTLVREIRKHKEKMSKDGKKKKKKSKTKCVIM
KRAS G12D, sequence (P01116 1-188 isoform P01116-2 G12D): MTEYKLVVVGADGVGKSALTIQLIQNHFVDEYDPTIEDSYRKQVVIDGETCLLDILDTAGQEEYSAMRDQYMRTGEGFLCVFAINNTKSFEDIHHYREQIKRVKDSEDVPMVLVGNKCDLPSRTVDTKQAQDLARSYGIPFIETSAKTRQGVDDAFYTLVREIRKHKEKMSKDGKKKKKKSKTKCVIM

For orientation: IC50 means the midpoint of a concentration-inhibition curve. With `Cc1nc2c(F)c(-c3cccc(Cl)c3Cl)c(CCC#N)cc2c2c1cc([C@H]1C[C@H](Oc3cccc(C(F)(F)F)c3)CN1C(=O)C1CC1)n2[C@H]1[C@H]2CN[C@@H]1C2` [Example 172], the IC50 in test [1] and in test [2] was no more than 100 nM each time.
Take `Cc1nc2c(F)c(-c3cccc(Cl)c3Cl)c(CCC#N)cc2c2c1cc([C@H]1C[C@H](n3cnnn3)CN1C(=O)C1CC1)n2[C@H]1[C@H]2CN[C@@H]1C2` [Example 395]: the half-maximal inhibitory concentration (IC50) in test [1] and in test [2] was no more than 100 nM in each case.
Take `Cc1nc2c(F)c(-c3cccc(Cl)c3Cl)c(CCC#N)cc2c2c1cc([C@H]1C[C@H](n3cc(C(C)N4CCOC4=O)nn3)CN1C(=O)C1CC1)n2[C@H]1[C@H]2CN[C@@H]1C2` (some centres unmarked) [Example 325]: the IC50 in test [1] and in test [2] was no more than 100 nM throughout.
Regarding `Cc1cc(C)cc(CO[C@H]2C[C@H](c3cc4c(C)nc5c(F)c(-c6cccc(Cl)c6Cl)c(CCC#N)cc5c4n3[C@H]3[C@H]4CN[C@@H]3C4)N(C(=O)C3CC3)C2)c1` [Example 123], the IC50 in test [1] and in test [2] was no more than 100 nM throughout.
Take `Cc1nc2c(F)c(-c3cccc(Cl)c3Cl)c(CCC#N)cc2c2c1cc([C@H]1C[C@H](n3cc(C4CCCO4)nn3)CN1C(=O)C1CC1)n2[C@H]1C2CNC1C2` (some centres unmarked) [Example 180]: the IC50 in test [1] and in test [2] was no more than 100 nM throughout.
As for `Cc1nc2c(F)c(-c3cccc(Cl)c3Cl)c(CCC#N)cc2c2c1cc([C@H]1C[C@H](OCc3ccccc3)CN1C(=O)C1(C)CC1)n2[C@H]1[C@H]2CN[C@@H]1C2` [Example 127], the IC50 in test [1] and in test [2] was no more than 100 nM in each case.
As for `Cc1nc2c(F)c(-c3cccc(Cl)c3Cl)c(CCC#N)cc2c2c1cc([C@H]1C[C@H](OC[C@H]3CCOC3)CN1C(=O)C1CC1)n2[C@H]1[C@H]2CN[C@@H]1C2` [Example 372], the IC50 in test [1] and in test [2] was no more than 100 nM in each case.
`CN1CCC(c2nc3c(F)c(-c4cccc(Cl)c4Cl)c(CCC#N)cc3c3c2cc([C@H]2C[C@H](OCc4c(F)cccc4F)CN2C(=O)C2CC2)n3[C@H]2[C@H]3CN[C@@H]2C3)CC1` [Example 236]: the IC50 in test [1] and in test [2] was no more than 100 nM throughout.
Turning to `Cc1nc2c(F)c(-c3cccc(Cl)c3Cl)c(CCC#N)cc2c2c1cc([C@H]1C[C@H](Oc3ccnc(C#N)c3)CN1C(=O)C1CC1)n2[C@H]1[C@H]2CN[C@@H]1C2` [Example 198], the concentration for half-maximal inhibition (IC50) in test [1] and in test [2] was no more than 100 nM each time.
With `Cc1nc2c(F)c(-c3cccc(Cl)c3Cl)c(CCC#N)cc2c2c1cc([C@H]1C[C@H](Oc3cccc(C#N)c3)[C@@H](C)N1C(=O)C1CC1)n2[C@H]1[C@H]2CN[C@@H]1C2` [Example 213], the IC50 in test [1] was 100 to 1000 nM; in test [2], no more than 100 nM.
For the compound `Cc1nc2c(F)c(-c3cccc(Cl)c3Cl)c(CCC#N)cc2c2c1cc([C@H]1C[C@H](Oc3cc(C(F)(F)F)[nH]n3)CN1C(=O)C1CC1)n2[C@H]1[C@H]2CN[C@@H]1C2` [Example 409], the IC50 in test [1] and in test [2] was no more than 100 nM each time.
For the compound `Cc1ccccc1C(=O)N1C[C@@H](OCc2c(F)cccc2F)C[C@@H]1c1cc2c(C)nc3c(F)c(-c4cccc(Cl)c4Cl)c(CCC#N)cc3c2n1[C@H]1[C@H]2CN[C@@H]1C2` [Example 196], the values for the IC50 in test [1] and in test [2] were 100 to 1000 nM and no more than 100 nM, respectively.
With `Cc1cc(C(C)O[C@H]2C[C@H](c3cc4c(C(C)O)nc5c(F)c(-c6cccc(Cl)c6Cl)c(CCC#N)cc5c4n3[C@H]3[C@H]4CN[C@@H]3C4)N(C(=O)C3CC3)C2)ns1` (some centres unmarked) [Example 335], the IC50 in test [1] and in test [2] was no more than 100 nM throughout.
Regarding `Cc1nc2c(F)c(-c3cccc(Cl)c3Cl)c(CCC#N)cc2c2c1cc([C@H]1C[C@H](Oc3cnn(C)c3)CN1C(=O)C1CC1)n2[C@H]1[C@H]2CN[C@@H]1C2` [Example 135], the IC50 in test [1] and in test [2] was no more than 100 nM each time.
Regarding `Cc1nc2c(F)c(-c3cccc(Cl)c3Cl)c(CCC#N)cc2c2c1cc([C@H]1C[C@H](OCc3nsc4cc(F)ccc34)CN1C(=O)C1CC1)n2[C@H]1[C@H]2CN[C@@H]1C2` [Example 256], the IC50 in test [1] and in test [2] was no more than 100 nM each time.
With `Cc1nc2c(F)c(-c3cccc(Cl)c3Cl)c(CCC#N)cc2c2c1cc([C@H]1C[C@H](n3cc(CC4CCNC4=O)nn3)CN1C(=O)C1CC1)n2[C@H]1[C@H]2CN[C@@H]1C2` (some centres unmarked) [Example 269], the IC50 in test [1] and in test [2] was no more than 100 nM throughout.
`CO[C@@H]1CC[C@@H](O[C@H]2C[C@H](c3cc4c(C)nc5c(F)c(-c6cccc(Cl)c6Cl)c(CCC#N)cc5c4n3[C@H]3[C@H]4CN[C@@H]3C4)N(C(=O)C3CC3)C2)C1` [Example 440]: the IC50 in test [1] and in test [2] was no more than 100 nM throughout.
On to `Cc1nc2c(F)c(-c3cccc(Cl)c3Cl)c(CCC#N)cc2c2c1cc([C@H]1C[C@H](n3cc(CCc4ccccc4)nn3)CN1C(=O)C1CC1)n2[C@H]1[C@H]2CN[C@@H]1C2` [Example 389], for which the half-maximal inhibitory concentration (IC50) in test [1] and in test [2] was no more than 100 nM throughout.
Regarding `Cc1cccc(C(F)(F)F)c1CO[C@H]1C[C@H](c2cc3c(C)nc4c(F)c(-c5cccc(Cl)c5Cl)c(CCC#N)cc4c3n2[C@H]2[C@H]3CN[C@@H]2C3)N(C(=O)C2CC2)C1` [Example 124], the IC50 in test [1] was 100 to 1000 nM; in test [2], no more than 100 nM.
The corresponding values for `Cc1nc2c(F)c(-c3cccc(Cl)c3Cl)c(CCC#N)cc2c2c1cc([C@H]1C[C@H](Oc3cccnc3OC(C)C)CN1C(=O)C1CC1)n2[C@H]1[C@H]2CN[C@@H]1C2` [Example 444] are no more than 100 nM and no more than 100 nM.
The corresponding values for `N#CCCc1cc2c(nc(C3CC4CCCC3N4)c3cc([C@H]4C[C@H](OCc5c(F)cccc5F)CN4C(=O)C4CC4)n([C@H]4[C@H]5CN[C@@H]4C5)c32)c(F)c1-c1cccc(Cl)c1Cl` (some centres unmarked) [Example 246] are 100 to 1000 nM and no more than 100 nM.
Regarding `Cc1nc2c(F)c(-c3cccc(Cl)c3Cl)c(CCC#N)cc2c2c1cc([C@H]1C[C@H](OC(=O)c3ccccc3)CN1C(=O)C1CC1)n2[C@H]1[C@H]2CN[C@@H]1C2` [Example 87], the IC50 in test [1] and in test [2] was no more than 100 nM throughout.
For the compound `Cc1nc2c(F)c(-c3cccc(Cl)c3Cl)c(CCC#N)cc2c2c1cc([C@H]1C[C@H](OCc3cccc(C(=O)N(C)C)c3)CN1C(=O)C1CC1)n2[C@H]1[C@H]2CN[C@@H]1C2` [Example 187], the IC50 in test [1] and in test [2] was no more than 100 nM in each case.
In the case of `Cc1nc2c(F)c(-c3cccc(Cl)c3Cl)c(CCC#N)cc2c2c1cc([C@H]1C[C@H](Oc3nccc4ccccc34)CN1C(=O)C1CC1)n2[C@H]1[C@H]2CN[C@@H]1C2` [Example 131], the IC50 in test [1] and in test [2] was no more than 100 nM throughout.
Regarding `CNC(=O)c1cccc(O[C@H]2C[C@H](c3cc4c(C)nc5c(F)c(-c6cccc(Cl)c6Cl)c(CCC#N)cc5c4n3[C@H]3[C@H]4CN[C@@H]3C4)N(C(=O)C3CC3)C2)c1` [Example 173], the IC50 in test [1] and in test [2] was no more than 100 nM in each case.
Turning to `Cc1ncc(CO[C@H]2C[C@H](c3cc4c(C)nc5c(F)c(-c6cccc(Cl)c6Cl)c(CCC#N)cc5c4n3[C@H]3[C@H]4CN[C@@H]3C4)N(C(=O)C3CC3)C2)s1` [Example 90], the IC50 in test [1] and in test [2] was no more than 100 nM in each case.
With `Cc1nc(CO[C@H]2C[C@H](c3cc4c(C)nc5c(F)c(-c6cccc(Cl)c6Cl)c(CCC#N)cc5c4n3[C@H]3[C@H]4CN[C@@H]3C4)N(C(=O)C3CC3)C2)sc1C` [Example 358], the IC50 in test [1] and in test [2] was no more than 100 nM in each case.
On to `Cc1nc2c(F)c(-c3cccc(Cl)c3Cl)c(CCC#N)cc2c2c1cc([C@H]1C[C@H](Oc3cc(N4CC(OC(F)F)C4)ccn3)CN1C(=O)C1CC1)n2[C@H]1[C@H]2CN[C@@H]1C2` [Example 369], for which the IC50 in test [1] and in test [2] was no more than 100 nM each time.
Turning to `Cc1cccc(C)c1CO[C@H]1C[C@H](c2cc3c(C)nc4c(F)c(-c5cccc(Cl)c5Cl)c(CCC#N)cc4c3n2[C@H]2[C@H]3CN[C@@H]2C3)N(C(=O)C2CC2)C1` [Example 113], the half-maximal inhibitory concentration (IC50) in test [1] and in test [2] was no more than 100 nM in each case.
In the case of `Cc1nc2c(F)c(-c3cccc(Cl)c3Cl)c(CCC#N)cc2c2c1cc([C@H]1C[C@H](Oc3cccc(C(C)C)c3)CN1C(=O)C1CC1)n2[C@H]1[C@H]2CN[C@@H]1C2` [Example 168], the IC50 was 100 to 1000 nM in test [1] and no more than 100 nM in test [2].
`Cc1nc2c(F)c(-c3cccc(Cl)c3Cl)c(CCC#N)cc2c2c1cc([C@H]1C[C@H](OCc3cccc(C(=O)O)c3)CN1C(=O)C1CC1)n2[C@H]1[C@H]2CN[C@@H]1C2` [Example 165]: the IC50 in test [1] and in test [2] was no more than 100 nM each time.
